In one test the test system is Micrococcus luteus. Description: Antimicrobial activity against Micrococcus luteus IFO 12708 after 24 hrs by agar dilution streak method. The format is functional. To be noted: IFO 12708, 24 h.
For another test, the system named is Saccharomyces. In words: Antimicrobial activity against Saccharomyces sake IFO 0305 after 7 days by agar dilution streak method. It counts as functional. To be noted: IFO 0305, 168 h. (In general: Agar dilution tests growth on a series of plates holding different concentrations.)
In another test the test system is Bacillus subtilis. In words: Antimicrobial activity against Bacillus subtilis PCI 219 IFO 3513 after 24 hrs by agar dilution streak method. It counts as functional. To be noted: PCI 219 IFO 3513, 24 h.
Another test deals with Kocuria rosea. In words: Antimicrobial activity against Micrococcus roseus IFO 3764 after 24 hrs by agar dilution streak method. It counts as functional. The conditions noted are these: IFO 3764, 24 h.
A further test has as its system Staphylococcus aureus. In words: Antimicrobial activity against Staphylococcus aureus 209P IFO 12732 after 24 hrs by agar dilution streak method. The format is functional. The conditions noted are these: 209P IFO 12732, 24 h.
Another test concerns Candida tropicalis. In words: Antimicrobial activity against Candida tropicalis IFO 0006 at 200 ug/mL after 7 days by paper disk method. The format is functional, organism-based.
The subject of test [1] is Meyerozyma guilliermondii. In words: Antimicrobial activity against Candida guilliermondii IFO 0454 at 200 ug/mL after 7 days by paper disk method. The format is functional, organism-based.
Test [2] relates to Trichophyton mentagrophytes. In words: Fungistatic activity against Trichophyton mentagrophytes IFO 5809 at 100 ug/mL after 7 days by liquid dilution method. The format is functional, organism-based.
Test [3] concerns Trichophyton tonsurans var. sulfureum. In words: Antimicrobial activity against Trichophyton tonsurans var. sulfureum IFO 5945 after 7 days by agar dilution streak method. It counts as functional. To be noted: IFO 5945, 168 h.
For a further test, the system named is Pichia norvegensis. Description: Antimicrobial activity against Candida mycoderma IFO 0162 at 200 ug/mL after 7 days by paper disk method. It counts as functional, organism-based.
The test system of a further test is Serratia marcescens. In words: Antimicrobial activity against Serratia marcescens IFO 12648 at 200 ug/mL after 24 hrs by paper disk method. It counts as functional, organism-based.
For a further test, the system named is Epidermophyton floccosum. Description: Antimicrobial activity against Epidermophyton floccosum IFO 9045 after 7 days by agar dilution streak method. It counts as functional. The conditions noted are these: IFO 9045, 168 h.
Another test deals with Nannizzia gypsea. In words: Antimicrobial activity against Microsporum gypseum IFO 8307 after 7 days by agar dilution streak method. The format is functional. To be noted: IFO 8307, 168 h.
In another test the test system is Cyberlindnera jadinii. Description: Antimicrobial activity against Candida utilis […] at 200 ug/mL after 7 days by paper disk method. It counts as functional, organism-based.
A further test concerns Candida albicans. In words: Antimicrobial activity against Candida albicans IFO 0197 at 200 ug/mL after 7 days by paper disk method. The format is functional, organism-based.
The next test concerns Escherichia coli. In words: Antimicrobial activity against Escherichia coli NIHJ IFO 12734 at 200 ug/mL after 24 hrs by paper disk method. It counts as functional, organism-based.
The subject of another test is Pseudomonas aeruginosa. In words: Antimicrobial activity against Pseudomonas aeruginosa IFO 12689 at 200 ug/mL after 24 hrs by paper disk method. The format is functional, organism-based.
The subject of another test is Trichophyton rubrum. In words: Antimicrobial activity against Trichophyton rubrum IFO 5808 after 7 days by agar dilution streak method. The format is functional. The conditions noted are these: IFO 5808, 168 h.
Test [4] deals with Trichophyton mentagrophytes. In words: Antimicrobial activity against Trichophyton mentagrophytes IFO 5809 after 7 days by agar dilution streak method. The format is functional. The conditions noted are these: IFO 5809, 168 h.

SMILES strings stand for the structures. Values after ≈ are worked out from the molar mass of the structure shown. Active and inactive are the calls of the source.

One may read the MIC as the smallest concentration in the dilution series that meets the test's criterion for growth inhibition. Turning to `O=C(N[C@H](CO)[C@H](O)c1ccc([N+](=O)[O-])cc1)C(Cl)Cl` [CHLORAMPHENICOL], the MIC in the test on Micrococcus luteus is 6.2 µg/mL (≈ 19.2 µM); in the test on Saccharomyces, > 200 µg/mL; against Bacillus subtilis, 6.2 µg/mL (≈ 19.2 µM); in the test on Kocuria rosea, 25 µg/mL (≈ 77.4 µM); in the test with Staphylococcus aureus it was 12.5 µg/mL (≈ 38.7 µM).

With `CC(C)=CCCC1=CC(=O)c2c(O)ccc(O)c2C1=O` [DEOXYSHIKONIN], the outcome (with Candida tropicalis; in test [1]; in test [2]; with Pichia norvegensis; with Serratia marcescens; in the test on Cyberlindnera jadinii) was inactive. The outcome in the test with Candida albicans, in the test with Escherichia coli and with Pseudomonas aeruginosa was inactive. For the same compound, the MIC was 50 µg/mL (≈ 184 µM) against Micrococcus luteus; 12.5 µg/mL (≈ 45.9 µM) in test [3]; 6.2 µg/mL (≈ 22.8 µM) with Saccharomyces; 6.2 µg/mL (≈ 22.8 µM) against Epidermophyton floccosum; 6.2 µg/mL (≈ 22.8 µM) against Nannizzia gypsea; 200 µg/mL (≈ 734 µM) in the test on Bacillus subtilis. Further, the MIC in the test on Kocuria rosea was 100 µg/mL (≈ 367 µM); in the test on Staphylococcus aureus, 200 µg/mL (≈ 734 µM); with Trichophyton rubrum, 25 µg/mL (≈ 91.8 µM); in [4], 12.5 µg/mL (≈ 45.9 µM).

Regarding `COC1=CC(=O)C[C@@H](C)[C@]12Oc1c(Cl)c(OC)cc(OC)c1C2=O` [GRISEOFULVIN], the MIC in test [3] was 3.1 µg/mL (≈ 8.79 µM); in the test with Epidermophyton floccosum, 1.5 µg/mL (≈ 4.25 µM); against Nannizzia gypsea, 1.5 µg/mL (≈ 4.25 µM); with Trichophyton rubrum it was 3.1 µg/mL (≈ 8.79 µM); in [4] it was 3.1 µg/mL (≈ 8.79 µM).

With `CC(C)=CC[C@@H](O)C1=CC(=O)c2c(O)ccc(O)c2C1=O` [SHIKONIN], the result (with Candida tropicalis; in [1]; in the test with Pichia norvegensis; with Serratia marcescens; in the test with Cyberlindnera jadinii; in the test on Candida albicans) was inactive. Also, the outcome in the test on Escherichia coli and in the test on Pseudomonas aeruginosa was inactive. For the same compound, the MIC was 100 µg/mL (≈ 347 µM) in the test on Micrococcus luteus; 25 µg/mL (≈ 86.7 µM) in test [3]; 3.1 µg/mL (≈ 10.8 µM) in the test with Saccharomyces; 6.2 µg/mL (≈ 21.5 µM) in the test with Epidermophyton floccosum; 12.5 µg/mL (≈ 43.4 µM) in the test with Nannizzia gypsea; > 200 µg/mL in the test with Bacillus subtilis. The MIC with Kocuria rosea was 200 µg/mL (≈ 694 µM); in the test with Staphylococcus aureus, > 200 µg/mL; with Trichophyton rubrum, 25 µg/mL (≈ 86.7 µM); in [4], 25 µg/mL (≈ 86.7 µM).

(Values after ChEMBL document CHEMBL1150747, “Isolation of deoxyshikonin, an antidermatophytic principle from Lithospermum erythrorhizon cell cultures” (1988).)
